We go through 2 compounds from patent publication US20230026167A1, “COSMETIC OR DERMATOLOGICAL COMPOSITION ACTING IN PARTICULAR ON THE EFFECTS OF BLUE LIGHT ON SKIN AND ITS APPENDAGES, AND ASSOCIATED USES” (Sederma, priority 2019, published 2023).

* marks the point of attachment. Palmitoyl = CCCCCCCCCCCCCCCC(=O)*

The test system of the assay is IL-6. Briefly: Synergy test: IL-6 production on HK following blue light irradiation (ELISA). As to conditions: blue light 30.2 J/cm2, 24 hours contact, compound taken separately, nsd. The format is cell-based, human. Here is the method: HK are cultivated in their culture medium. After rinsing with PBS, the cells are returned to this same buffer and exposed to blue light at a non-cytotoxic dose of 30.2 J/cm^2. The exhibition system consists of a set of 30 blue LEDs spread over a 30 cm^2 flat surface. The photon flux reaches the cells perpendicularly. The temperature is controlled, and all the cells are in the same enclosure (37° C./5% CO2). The emission spectrum is centered on 420 nm. The cells are then brought into contact with each of the invention compounds taken separately or with the composition according to the invention for 24 hours. The culture media are then harvested, and the IL-6 concentrations assayed by ELISA method. An assay on the cell layers is used to reduce to the number of cells.
(ELISA stands for enzyme-linked immunosorbent assay.)

As to Palmitoyl-GQPR-OH [Pal-GQPR], where the note is “15 ppm”, the “% of variation in IL-6 production” value is reported as −7%.

In the case of `O=c1cc(-c2ccccc2)oc2cc(O)cc(O)c12` [Chrysine, 5,7-dihydroxyflavone], the “% of variation in IL-6 production” value (1.6 ppm) is given as −10%.
